“And” between values parts separate entries of the source, which are not always exact repeats. Identical values can stand only once.

The EC50 is the concentration at which the effect is half-maximal.

The test system of series [1] is RKO. The experiment in a line: K-Ras Wnt synthetic lethal, RKO KrasSL. The series is classed as cell-based. The settings on record: Homo sapiens, average of three independent experiments, read-out: RKO KrasSL % Inhibit. The text has this:
(§1) Selected compounds of this invention were screened for K-Ras Wnt synthetic lethal, anti-angiogenic activity, Wnt pathway modulatory activity, insulin and GLP-1 secretion modulatory activity, GPR119 receptor agonist activity, mGlu2R antagonist activity, CGRP receptor antagonist activity, Apelin receptor agonist activity and hexokinase 2 inhibitory activity using the PD^2 and TD^2 Screening Panel (Eli Lilly & Company). See Lee, et al. (2011) J. Biomol. Screen. 16:588-602.

Series [2] deals with Pituitary Cells. Briefly: Secondary assay, pituitary cells growth hormone secretion. The series is classed as cell-based. The settings on record: @ 3.3 μM. As for the experimental part:
(§2) In light of the above results, additional compounds (Table 7) were prepared and phenotypic assays were carried out using hNCI-H716 and mSTC-1 cell lines to monitor GLP-1 secretion (single point (SP) and concentration response curves (CRC)) (Table 8), as well as a secondary assay with pituitary cells (Table 9).

Series [3] relates to HCT116. Briefly: K-Ras Wnt synthetic lethal, HCT116 KrasSL. The series is classed as cell-based. The conditions noted are these: Homo sapiens, HCT-116, read-out: HCT116 KrasSL % Inhibit.
Source text: as §1

Series [4] addresses hCGRP1 (Homo sapiens, UniProt O60894+Q16602). Briefly: CGRP receptor antagonist, hCGRP1 antagonism. The series is classed as cell-based.
Source text: as §1

The subject of series [5] is SNU-C1. Briefly: K-Ras Wnt synthetic lethal, SNU-C1 KrasSL. The conditions noted are these: Homo sapiens, read-out: SNU-C1 KrasSL % Inhibit. Format: cell-based.
Source text: as §1

The test system of series [6] is Insulin Secretion. Briefly: Insulin secretion, Secretion Hi Gluc. Format: cell-based.
Source text: as §1

In series [7] the target is T1, hHK2 (Homo sapiens, UniProt P52789).
T1 sequence (P52789 1-917): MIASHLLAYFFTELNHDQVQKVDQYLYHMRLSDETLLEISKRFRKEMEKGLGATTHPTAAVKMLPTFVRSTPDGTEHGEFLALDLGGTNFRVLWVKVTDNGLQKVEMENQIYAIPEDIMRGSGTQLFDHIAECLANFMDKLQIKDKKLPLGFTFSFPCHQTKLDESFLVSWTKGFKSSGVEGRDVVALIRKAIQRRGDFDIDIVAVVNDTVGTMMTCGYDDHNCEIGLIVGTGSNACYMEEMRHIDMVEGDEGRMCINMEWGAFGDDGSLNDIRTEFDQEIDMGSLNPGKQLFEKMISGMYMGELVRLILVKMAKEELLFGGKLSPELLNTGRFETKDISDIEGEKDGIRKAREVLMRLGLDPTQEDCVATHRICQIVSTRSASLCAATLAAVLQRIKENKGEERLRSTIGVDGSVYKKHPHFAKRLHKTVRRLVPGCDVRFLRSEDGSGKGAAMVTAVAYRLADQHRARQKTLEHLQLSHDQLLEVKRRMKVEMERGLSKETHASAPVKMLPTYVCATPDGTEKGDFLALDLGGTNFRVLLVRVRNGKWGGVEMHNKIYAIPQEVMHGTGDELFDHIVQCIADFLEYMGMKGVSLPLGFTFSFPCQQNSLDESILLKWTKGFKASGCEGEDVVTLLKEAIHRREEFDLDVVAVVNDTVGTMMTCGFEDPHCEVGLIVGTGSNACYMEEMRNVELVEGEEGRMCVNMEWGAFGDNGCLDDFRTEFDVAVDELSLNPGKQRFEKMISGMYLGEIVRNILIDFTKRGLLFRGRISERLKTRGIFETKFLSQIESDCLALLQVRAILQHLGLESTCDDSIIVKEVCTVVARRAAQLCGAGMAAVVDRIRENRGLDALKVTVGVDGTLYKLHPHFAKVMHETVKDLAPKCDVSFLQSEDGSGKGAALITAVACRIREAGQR
The experiment in a line: Hexokinase 2 inhibitor, hHK2 ADP-FP. The series is classed as biochemical.
Source text: as §1

Series [8] relates to Wnt Pathway. The experiment in a line: Wnt pathway modulatory activity, Osteo bCat. The series is classed as cell-based.
Source text: as §1

For series [9], the system named is hNCI-H716. Briefly: hNCI-H716 GLP-1 secretion. The series is classed as cell-based. The conditions noted are these: for activation at 2 µM / activation at 20 µM / Primary SP hNCI (% Stim.): single point; for activation at 2 µM / activation at 20 µM: read-out: Primary SP hNCI (% Stim.).
Source text: as §1, §2

Series [10] concerns the target T2, hApelin (Homo sapiens, UniProt P35414).
T2 sequence (P35414 1-380): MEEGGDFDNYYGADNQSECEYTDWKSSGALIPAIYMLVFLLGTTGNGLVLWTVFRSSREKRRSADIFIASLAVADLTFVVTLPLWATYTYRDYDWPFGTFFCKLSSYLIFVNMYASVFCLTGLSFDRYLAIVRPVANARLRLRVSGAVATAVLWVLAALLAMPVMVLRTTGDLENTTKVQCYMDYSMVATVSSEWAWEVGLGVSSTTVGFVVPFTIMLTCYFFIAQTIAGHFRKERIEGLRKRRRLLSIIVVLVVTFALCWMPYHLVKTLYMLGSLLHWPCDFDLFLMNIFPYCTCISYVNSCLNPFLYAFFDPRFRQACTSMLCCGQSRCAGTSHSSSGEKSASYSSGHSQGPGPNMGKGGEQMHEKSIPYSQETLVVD
The experiment in a line: Apelin receptor agonist, hApelin agonism. Format: cell-based. The settings on record: @ 30 μM.
Source text: as §1

Series [11] deals with mSTC-1. The experiment in a line: mSTC-1 GLP-1 secretion. The series is classed as cell-based. The conditions noted are these: for EC50: concentration response curve, read-out: Primary CRC (EC50, μM) mSTC. How it is done:
as §2

Series [12] deals with T3, hGPR119 (Homo sapiens, UniProt Q8TDV5).
T3 sequence (Q8TDV5 1-335): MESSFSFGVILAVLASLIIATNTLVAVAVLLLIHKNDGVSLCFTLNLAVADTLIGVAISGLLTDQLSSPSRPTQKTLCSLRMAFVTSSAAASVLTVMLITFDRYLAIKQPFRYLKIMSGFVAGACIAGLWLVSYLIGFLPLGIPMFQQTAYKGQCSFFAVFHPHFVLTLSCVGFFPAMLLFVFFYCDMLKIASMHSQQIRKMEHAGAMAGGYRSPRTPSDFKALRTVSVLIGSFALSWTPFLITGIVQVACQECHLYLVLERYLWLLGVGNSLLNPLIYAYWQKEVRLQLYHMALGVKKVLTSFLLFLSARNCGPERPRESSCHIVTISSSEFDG
The experiment in a line: GPR119 receptor agonist, hGPR119 agonism. Format: cell-based. The conditions noted are these: @ 10 μM.
Source text: as §1

Series [13] has as its system Angio Tube Area. The experiment in a line: Anti-angiogenic activity, Angio Tube Area. The series is classed as cell-based. The conditions noted are these: read-out: Angio Tube Area % Inhibit.
Source text: as §1

In series [14] the target is hMGLUR2 (Homo sapiens, UniProt Q14416). The experiment in a line: mGlu2R antagonist, hMGLUR2. The series is classed as cell-based.
Sequence of hMGLUR2 (Q14416 19-872): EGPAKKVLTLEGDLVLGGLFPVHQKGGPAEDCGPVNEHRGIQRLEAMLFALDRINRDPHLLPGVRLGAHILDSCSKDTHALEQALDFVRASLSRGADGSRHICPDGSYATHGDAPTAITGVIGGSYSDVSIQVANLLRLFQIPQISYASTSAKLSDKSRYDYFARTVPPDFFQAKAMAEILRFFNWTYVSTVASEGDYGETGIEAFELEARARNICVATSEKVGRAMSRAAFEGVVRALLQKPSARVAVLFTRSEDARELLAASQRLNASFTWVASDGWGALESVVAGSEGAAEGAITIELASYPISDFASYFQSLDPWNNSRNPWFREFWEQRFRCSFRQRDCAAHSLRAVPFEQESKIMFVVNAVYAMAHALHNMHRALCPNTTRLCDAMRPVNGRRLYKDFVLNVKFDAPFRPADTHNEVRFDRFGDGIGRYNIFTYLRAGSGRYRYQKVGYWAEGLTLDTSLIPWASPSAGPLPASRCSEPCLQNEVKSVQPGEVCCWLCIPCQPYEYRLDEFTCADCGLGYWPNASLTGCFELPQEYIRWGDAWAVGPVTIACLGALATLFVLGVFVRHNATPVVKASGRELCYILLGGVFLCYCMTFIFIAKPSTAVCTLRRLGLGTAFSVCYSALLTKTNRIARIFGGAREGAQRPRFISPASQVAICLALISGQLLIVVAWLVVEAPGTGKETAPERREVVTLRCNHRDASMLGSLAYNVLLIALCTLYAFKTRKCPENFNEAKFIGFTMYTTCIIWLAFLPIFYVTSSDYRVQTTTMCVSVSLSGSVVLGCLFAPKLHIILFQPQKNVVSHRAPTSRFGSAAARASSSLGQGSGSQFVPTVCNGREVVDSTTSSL
Source text: as §1

Series [15] has as its system Co1o320. The experiment in a line: K-Ras Wnt synthetic lethal, Co1o320 KrasSL. The series is classed as cell-based. The conditions noted are these: read-out: Co1o320 KrasSL % Inhibit.
Source text: as §1

Series [16] concerns hNCI-H716. The experiment in a line: hNCI basal LDH secretion. Format: cell-based. The settings on record: read-out: Primary CRC (EC50, μM) hNCI Basal. How it is done:
as §2

The subject of series [17] is mSTC-1. Briefly: mSTC LDH secretion. Format: cell-based. The settings on record: read-out: Primary CRC (EC50, μM) mSTC LDH. As for the experimental part:
as §2

Series [18] relates to GLP-1 (X-36 amide). Briefly: Plasma GLP-1 response to oral compound in mice. The series is classed as in vivo, Mice (male C57BL/6). The conditions noted are these: oral 100 mg/kg, plasma 30 minutes post-dose. As for the experimental part:
(§3) Mice (male C57BL/6, 8-10 weeks of age) were fasted overnight by being placed in a clean cage without food. The next day, all mice were weighed and assigned to groups of similar body weights. Test compounds were formulated in 1% HEC, 0.25% TWEEN 80, 0.05% antifoam (vehicle control). Compounds 11ls and llu were orally dosed (100 mg/kg) and cardiac sticks were done on CO2 euthanized mice at 30 minutes post-dose. Blood (500+μL whole blood) from the cardiac stick was placed in chilled EDTA-plasma tubes with inhibitors, DPP4 inhibitor (5 μL/500 μL blood) and aprotinin (bovine lung, […]/500 μL blood), and stored on ice. Plasma was separated by centrifugation and aliquoted for compound exposure to total GIP and GLP-1 (X-36 amide). Plates for compound exposure were analyzed for absorption, distribution, metabolism, and excretion, while conventional kits were used for GLP-1 (x-36) amide (Mesoscale) and GIP (Millipore) analyses.

Series [19] is described as follows: Plasma compound exposure after oral dosing in mice. Format: in vivo, Mice (male C57BL/6). The conditions noted are these: oral 100 mg/kg, 30 minutes post-dose. How it is done: as §3
Series [20] concerns GIP. The experiment in a line: Plasma GIP response to oral compound in mice. The conditions noted are these: oral 100 mg/kg, plasma 30 minutes post-dose. The series is classed as in vivo, Mice (male C57BL/6). As for the experimental part: as §3
Setting [21] is: GLP-1 secretion, concentration response curve, read-out: Primary CRC (EC50, μM) hNCI.

Sequence of hCGRP1 (Q16602 23-461): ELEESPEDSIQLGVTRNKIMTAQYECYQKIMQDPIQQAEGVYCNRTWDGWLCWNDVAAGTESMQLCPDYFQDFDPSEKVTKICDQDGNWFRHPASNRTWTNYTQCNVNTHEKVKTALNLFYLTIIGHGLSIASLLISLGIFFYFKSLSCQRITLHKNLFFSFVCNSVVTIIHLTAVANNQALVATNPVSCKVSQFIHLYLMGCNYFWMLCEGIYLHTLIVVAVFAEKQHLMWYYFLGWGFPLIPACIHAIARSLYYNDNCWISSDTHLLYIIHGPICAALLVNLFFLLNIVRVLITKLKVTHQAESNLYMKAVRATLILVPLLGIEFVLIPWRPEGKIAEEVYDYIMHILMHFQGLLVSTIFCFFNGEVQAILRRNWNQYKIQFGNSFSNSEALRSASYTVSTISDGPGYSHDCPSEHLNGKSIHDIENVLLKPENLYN
Sequence of hCGRP1 (O60894 27-148 partner): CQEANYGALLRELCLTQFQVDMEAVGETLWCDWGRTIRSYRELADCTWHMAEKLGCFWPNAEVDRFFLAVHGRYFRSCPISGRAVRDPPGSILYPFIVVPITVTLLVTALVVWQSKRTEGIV

`CC1(C)c2c([nH]c3ccc(Br)cc23)C2C=CC1C2` (centres unmarked) [Compound 11t]: the inhibition at 0.2 µM in series [1] (@ 0.2 μM) was -5.8%; in series [3] (@ 0.2 μM), 5.3%; in series [5] (@ 0.2 μM) it was -1%; in [15] (@ 0.2 μM) it was -6.6%. For the same molecule, the inhibition at 2 µM in series [1] (@ 2 μM) was 17.6%; in [3] (@ 2 μM), -11.5%; in series [5] (@ 2 μM) it was -19.1%; in series [13] (@ 2 μM), 8%; in [15] (@ 2 μM), 23.1%. The inhibition at 20 µM in series [1] (@ 20 μM) came to 102%; in series [3] (@ 20 μM), 104%; in series [5] (@ 20 μM), 107%; in series [7], 3.2%; in series [15] (@ 20 μM), 152%. For the same molecule, the “Pituitary Cells (Growth Hormone Secretion, % Stimulation)” value in series [2] was −12.6% and −7.1%. The inhibition at 30 µM in series [4] came out at 67.7%. Further, the “Secretion Hi Gluc % Stimulation” value in [6] (@ 2 μM) worked out at 0.1%; in series [6] (@ 10 μM) it was 19.1%. Further, the results for the “Osteo bCat % Stimulation” value in [8] (@ 2 μM) and in [8] (@ 10 μM) were 1.8% and 5.5%, respectively. Moreover, the activation at 2 µM in series [9] (2 μM, GLP-1 secretion) amounted to 0%. Besides, the activation at 20 µM in series [9] (20 μM, GLP-1 secretion) worked out at 35.2%. The entries for the “hNCI GLP-1 Secretion % Stimulation” value in series [9] (@ 2 μM) and in series [9] (@ 20 μM) were 0% and 35.2%, respectively. For the same molecule, the concentration for a half-maximal effect (EC50) is 29.1 µM and 17.6 µM and 16.4 µM in series [9] (setting [21]); 29.1 µM in series [9] (average of three independent experiments, read-out: hNCI GLP-1 Secretion EC50); 29 µM in series [9] (secretion and/or production of GLP-1, read-out: EC50 values (Table 6)); 2.4 µM and 4.1 µM and 2.2 µM in series [11]. Moreover, the “hApelin agonism % Stimulation” value in series [10] is recorded as −52.8%. Further, the “hGPR119 agonism % Stimulation” value in [12] was −2.3%. Further, in series [13] (@ 10 μM), the inhibition at 10 µM worked out at 38%. In addition, the inhibition at 50 µM in series [14] was -19.7%.

For `O=C1C2CCC1[C@@]1(CCO)c3ccccc3N(Cc3ccccc3)[C@@H]21` (some centres unmarked) [Compound 24], the EC50 in series [16] was above 40 µM; in series [17], above 40 µM; in series [9] (setting [21]), above 40 µM; in series [11], 15.2 µM and 13.5 µM. The activation at 2 µM was 1% in series [9] (2 μM, GLP-1 secretion) and -3.3% in series [11] (2 μM, single point, read-out: Primary SP mSTC (% Stim.)). Further, the activation at 20 µM in series [9] (20 μM, GLP-1 secretion) worked out at 4.6%; in [11] (20 μM, single point, read-out: Primary SP mSTC (% Stim.)), 47.9%.

For the molecule `CC1(C)c2c([nH]c3ccc(I)cc23)C2C=CC1C2` (centres unmarked) [Compound 11u], the “Avg. GLP-1 (pg/mL) ±SEM” value in series [18] is recorded as 7.66 ± 0.89 pg/mL. For the same molecule, the “mean (±standard deviation) plasma levels” value in series [19] was determined as 201.6 ± 37.24 ng/mL. Besides, the concentration for a half-maximal effect (EC50) in series [16] is 35.8 µM; in series [11] it was 2 µM and 3.2 µM. The “Primary SP hNCI (% Stim.)” value in [9] (2 μM, GLP-1 secretion) came out at 0%; in series [9] (20 μM, GLP-1 secretion) it was 57%. The “Avg. GIP (pg/mL) ±SEM” value in series [20] turned out to be 26.23 ± 10.35 pg/mL.

Values taken from patent US9598365B2, “Method for synthesizing cycloalkanyl[b]indoles, cycloalkanyl[b]benzofurans, cycloalkanyl[b]benzothiophenes, compounds and methods of use” (Trustees of Dartmouth College, priority 2012, dated 2017).
